Columns and labels:
Format in all cases: cell-based
[1] = tested on: Human umbilical vein endothelial cells; experiment: Nucleoli and nuclear speckle morphology (fibrillarin, SC-35 immunostaining); conditions: for fibrillarin or SC-35 distribution: 2-D culture conditions; for patterns of fibrillarin and SC-35 staining: 3-D culture, VEGF/HGF-stimulated
From the text: At sites of tissue damage, inflammation or neoplasia, fibrinogen is converted into a 3-D meshwork of fibrin fibrils that serve as a structural support for endothelial cells undergoing neovascularization (Chun et al. 2006. Cell, 125: 577-591; Hiraoka et al. 1998. Cell, 95: 365-377; Schafer and Werner. 2008. Nat. Rev. Mol. Cell Biol., 9: 628-638; Zhou et al. 2008. Genes Dev., 22: 1231-1243). This process can be recapitulated in vitro by embedding serum-supplemented human endothelial cells within a 3-D fibrin gel in the presence of the pro-angiogenic factors, VEGF and HGF. Human umbilical vein endothelial cells were isolated from umbilical cords by perfusion of the umbilical vein with type 3 collagenase (Worthington, Lakewood, N.J.) and cultured in Medium-199 (Invitrogen, Carlsbad, Calif.) with 20% human serum and 50 μg/ml endothelial cell growth supplement (ECGS; BD Biosciences, Franklin Lakes, N.J.). For 3-D culture, endothelial cells were suspended in a solution of thrombin and aprotinin (Sigma, St. Louis, Mo.) and mixed 1:1 with a solution of 6 mg/ml fibrinogen (Calbiochem, Gibbstown, N.J.). Vasculogenesis was triggered by treatment with 100 ng/ml VEGF, 50 ng/ml HGF (Genentech, San Francisco, Calif.). Fibronectin fibrillogenesis was tracked in 3-D by co-culture with human fibronectin (Sigma) labeled with Alexa-594 (Invitrogen).
The morphology of nucleoli and nuclear speckles—which serve, respectively, as ribosomal RNA and pre-mRNA processing sites—was assessed by immunostaining for fibrillarin (a pre-rRNA processing protein) or SC-35 (a pre-mRNA splicing protein) (Tang et al., supra). […] Likewise, nuclear speckle morphology changed from a small number of large foci to more numerous, smaller foci.

[2] = tested on: Human umbilical vein endothelial cells; experiment: Nesprin distribution at the nuclear envelope in 3-D fibrin gels; conditions: VEGF/HGF-stimulated
From the text: Physical interactions between cytoskeletal networks and the nucleus are mediated by a family of Klarsicht, ANC-1, Syne homology (KASH) domain-containing proteins. The C-terminal domains of the proteins are embedded within the outer nuclear membrane, where they interact with the inner nuclear membrane via members of the SUN protein family (Crisp et al., 2006. J. Cell Biol., 172: 41-53; Dechat et al., supra; Starr, supra; Stewart et al., supra; Wilhelmsen et al., 2006. J. Cell Biol., 171: 799-810). In turn, SUN proteins span the inner nuclear membrane to establish binding interactions with a scaffold of lamin family members and nuclear pore complexes (Dechat et al., supra; Starr, supra; Stewart et al., supra). To determine whether this interaction plays a role in the nuclear morphology regulation by ECM remodeling, expression of nesprins-1 and 2 (also termed Syne-1 and 2) nesprin-3 was examined in 3-D-embedded endothelial cells. Nesprins-1 and 2 bind F-actin, while nesprin-3 indirectly interacts with intermediate filaments via binding of plectin (Crisp and Burke, 2008. FEBS Lett., 582: 2023-2032; Starr, supra; Stewart et al., supra).

[3] = tested on: Human umbilical vein endothelial cells; experiment: Atomic force microscopy micro-indentation of pericellular ECM rigidity; conditions: VEGF/HGF-stimulated, fibrin gels
Procedure: Since ECM rigidity regulates cytoskeletal remodeling and force generation, and consequently cell function (Engler et al., 2006. Cell, 126: 677-689; Wozniak and Chen, supra; Zajac and Discher, 2008. Curr. Opin. Cell Biol., 20: 609-615), atomic force microscopy micro-indentation (AFM) was employed to quantify endothelial cell-dependent changes in ECM remodeling. AFM was performed by first washing fibrin gels with phosphate buffered saline (PBS) after removing culture medium. Samples were mechanically characterized using an Asylum MFP-3D atomic force microscope (Asylum Research, Santa Barbara, Calif.). Micro-indentation was performed using a sphere-tipped probe (Novascan, Ames, Iowa) with a sphere diameter of 5 μm and a nominal spring constant of ˜60 pN/nm. The cantilever spring constant was confirmed by thermal fluctuation method (Thundat et al., 1994. Applied Physics Letters, 64: 2894-2896). The AFM system was calibrated by following the manufacturer's recommended procedure before each indentation measurement. AFM micro-indentation was performed in PBS solution at room temperature. Individual force-indentation profile was acquired at an indentation rate of 2 μm/s using deflection trigger mode with a trigger value of 200 nm. […] Shear modulus at each position was calculated from fitting force-indentation data using a Hertz sphere model (Richert et al., 2004, Biomacromolecules, 5: 1908-1916).

human endothelial cells = experiment: Intracellular nanorheology (bead tracking) of 3-D-embedded endothelial cells
From the text: Endothelial cells cultured atop highly malleable surfaces retain a spherical configuration, fail to organize stress fibers, and are unable to exert tractional forces—a phenotype identical to that observed in 3-D-embedded, Fn matrix assembly-incompetent endothelial cells. A cell's internal stiffness is a viscoelastic property governed by cytoskeletal assembly, actin crosslinking, and the production of actomyosin-dependent stress. Internal stiffness changes as a function of the perceived stiffness of the surrounding substratum (Solon et al. 2007. Biophys. J., 93(12): 4453-4461). Therefore, the micromechanical properties of 3-D-embedded endothelial cells were monitored via intracellular nanorheology.
Prior to embedding in the 3-D fibrin matrix, endothelial cells were ballistically microinjected with 100 nm polystyrene beads to circumvent the endocytic pathway and subsequent directed motion of the beads. After 3 days of incubation, the beads dispersed in the cytoplasm and their centroids were tracked with high spatial and temporal resolution using fluorescence microscopy. […] Elastic moduli, which quantify the local resistance of the cytoplasm against small random forces acting on the surface of the beads, were derived from MSD curves to quantify cellular mechanical properties.
In the absence of Fn fibrillogenesis, an impaired ability of embedded endothelial cells to generate myosin-dependent forces and increase cytoplasmic stiffness was predicted to affect both Fn unfolding, as well as the ability of the cells to properly register the mechanical properties of the surrounding substratum (Wu et al. 1995. Cell, 83(5): 715-724; Zhong et al. 1998. J. Cell Biol., 141(2): 539-551; Baneyx et al. 2002. Proc. Natl. Acad. Sci. USA, 99(8): 5139-5143; Discher et al. 2005. Science, 310(5751): 1139-1143; Engler, supra; and Yoneda, supra). As such, the rheologic and functional characteristics of endothelial cells were assessed in the presence of the specific myosin ATPase inhibitor, blebbistatin. […]

Molecule	fibrillarin or SC-35 distribution [1]	patterns of fibrillarin and SC-35 staining [1]	nesprin distribution at the nuclear envelope [2]	3-D pericellular rigidity (shear modulus by AFM) [3]	cytoplasmic stiffness (human endothelial cells; 3-D fibrin gel, 50 μM blebbistatin)	mean square displacement (MSD) of the beads (human endothelial cells; 3-D fibrin matrix, 3 days, relative to control cells)	elastic modulus of the cytoplasm (human endothelial cells; 3-D fibrin matrix, versus control cells, P<0.001)
CNC(=O)[C@H](Cc1c[nH]c2ccccc12)NC(=O)[C@@H](CC(=O)NO)CC(C)C [GM6001]	did not affect	reversed to that resembling unstimulated endothelial cells	irregular nesprin distributions	significantly lower	–	–	–
Cc1ccc2c(c1)C(=O)C1(O)CCN(c3ccccc3)C1=N2 (centres unmarked) [blebbistatin]	–	–	–	–	failed to increase	–	–
FUD: 49-residue functional upstream domain of Streptococcus pyogenes F1 adhesion protein, SEQ ID NO: 10; fibronectin fibril assembly inhibitor (KDQSPLAGESGETEYITEVYGNQQNPVDIDKKLPNETGFSGNMVETEDT; Streptococcus pyogenes; Functional Upstream Domain (FUD) of F1 adhesion protein)	did not affect	reversed to that resembling unstimulated endothelial cells	irregular nesprin distributions	significantly lower	–	significantly increased	significantly lower

— US8697081B2, “Method of modulating neovascularization” (The Regents of the University of Michigan, priority 2008, dated 2014)
